The target of assay [1] is Cdk6/CyclinD3 (Homo sapiens (Human), UniProt Q00534). Put plainly: Cdk6 kinase inhibition assay with recombinant Cdk6/CyclinD3, Rb substrate, [33P]-ATP filter plate. The class given is biochemical. Particulars: 25 μM ATP, read-out: Cdk 6 IC50. In short, it runs like this:
(§1)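 Recombinant Cdk4/CyclinD1 or Cdk6/CyclinD3 phosphorylated Rb protein with [33P]-ATP for 1 h at room temperature. Protein was TCA-precipitated on filter plates and bound radioactivity counted. IC50 by nonlinear regression.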

The target in assay [2] is Cdk4/CyclinD1 (Homo sapiens (Human), UniProt P11802). The assay can be described thus: Cdk4 kinase inhibition assay with recombinant Cdk4/CyclinD1, Rb substrate, [33P]-ATP filter plate. The class given is biochemical. Particulars: 25 μM ATP, read-out: Cdk 4 IC50. Put shortly:
as §1

pIC50: −log10 of the molar value.

The text below walks through data of patent US8841312B2, “Fused pyridine, pyrimidine and triazine compounds as cell cycle inhibitors” (Amgen Inc., priority 2007, dated 2014).

Sequence of Cdk6/CyclinD3 (Q00534 whole entry): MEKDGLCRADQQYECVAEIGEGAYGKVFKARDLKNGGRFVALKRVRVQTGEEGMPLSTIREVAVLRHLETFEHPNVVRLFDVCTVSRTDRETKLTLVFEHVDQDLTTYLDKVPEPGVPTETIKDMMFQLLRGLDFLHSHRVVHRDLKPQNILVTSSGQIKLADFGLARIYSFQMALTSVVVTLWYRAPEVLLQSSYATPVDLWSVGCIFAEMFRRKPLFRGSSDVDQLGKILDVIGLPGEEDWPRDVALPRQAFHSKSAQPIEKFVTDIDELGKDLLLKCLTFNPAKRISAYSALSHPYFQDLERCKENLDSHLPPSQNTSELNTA
Sequence of Cdk6/CyclinD3 (P30281 whole entry partner): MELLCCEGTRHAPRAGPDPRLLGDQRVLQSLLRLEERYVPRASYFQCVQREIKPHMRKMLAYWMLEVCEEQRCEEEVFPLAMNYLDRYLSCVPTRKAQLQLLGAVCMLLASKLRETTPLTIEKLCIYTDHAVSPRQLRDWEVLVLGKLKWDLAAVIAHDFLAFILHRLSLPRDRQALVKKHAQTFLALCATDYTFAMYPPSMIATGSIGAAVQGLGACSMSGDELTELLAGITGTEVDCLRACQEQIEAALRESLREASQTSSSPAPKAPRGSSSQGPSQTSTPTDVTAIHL
Sequence of Cdk4/CyclinD1 (P11802 whole entry): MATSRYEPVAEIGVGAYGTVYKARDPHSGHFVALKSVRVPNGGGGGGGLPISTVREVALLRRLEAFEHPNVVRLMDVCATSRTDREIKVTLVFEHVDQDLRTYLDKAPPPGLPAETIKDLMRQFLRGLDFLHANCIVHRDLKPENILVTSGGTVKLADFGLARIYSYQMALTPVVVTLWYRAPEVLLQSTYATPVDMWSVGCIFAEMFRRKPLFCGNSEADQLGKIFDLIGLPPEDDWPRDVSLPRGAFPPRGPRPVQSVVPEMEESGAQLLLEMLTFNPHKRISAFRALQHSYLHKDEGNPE
Sequence of Cdk4/CyclinD1 (P24385 whole entry partner): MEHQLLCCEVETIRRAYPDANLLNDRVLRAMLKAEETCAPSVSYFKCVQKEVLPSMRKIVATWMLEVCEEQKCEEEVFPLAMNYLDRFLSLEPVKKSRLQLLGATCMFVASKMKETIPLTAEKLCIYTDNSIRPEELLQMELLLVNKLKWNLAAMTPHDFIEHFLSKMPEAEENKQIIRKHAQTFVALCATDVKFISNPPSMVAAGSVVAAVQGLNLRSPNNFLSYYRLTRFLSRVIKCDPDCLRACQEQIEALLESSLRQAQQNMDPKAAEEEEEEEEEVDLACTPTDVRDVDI

As to `CN(C)C1CCN(c2ccc(Nc3ncc4c5ccncc5n([C@H]5CCC[C@H]5O)c4n3)nc2)CC1` [Example 354], the negative-log IC50 (pIC50) (in general, the negative decadic logarithm of the IC50, by convention in mol/L) was 6.08 in assay [1] and 6.24 in assay [2].

In the case of `OCCC1CCN(c2ccc(Nc3ncc4c5ccnc(F)c5n(C5CCCC5)c4n3)nc2)CC1` [Example 190, 2-(1-(6-((9-Cyclopentyl-8-fluoro-9H-pyrido[4′,3′:4,5]pyrrolo[2,3-d]pyrimidin-2-yl)amino)-3-pyridinyl)-4-piperidinyl)ethanol], the pIC50 in assay [1] was 8.12; in assay [2], 8.19.

Take `OC1CN(C2CCN(c3ccc(Nc4ncc5c6ccncc6n(C6CCCC6)c5n4)nn3)CC2)C1` [Example 448]: the pIC50 was 7.66 in assay [1] and 8.00 in assay [2].

Consider `c1cc2c3cnc(Nc4cnc(N5CCNCC5)nc4)nc3n(C3CCCC3)c2cn1` [Example 8, 9-cyclopentyl-N-(2-(1-piperazinyl)-5-pyrimidinyl)-9H-pyrido[4′,3′:4,5]pyrrolo[2,3-d]pyrimidin-2-amine], for which the pIC50 in assay [1] was 8.96; in assay [2], 9.89.

As to `c1cc2c3cnc(Nc4ccc(N5CCC(N6CCOCC6)CC5)nn4)nc3n(C3CCCC3)c2cn1` [Example 447], the pIC50 in assay [1] is 7.59; in assay [2], 8.55.

For `CN(CCO)C1CCN(c2ccc(Nc3ncc4c5ccncc5n(C5CCCC5)c4n3)nn2)CC1` [Example 440], the pIC50 in assay [1] was 7.85; in assay [2] it was 8.24.

Turning to `COC(=O)CNC1CCN(c2ccc(Nc3ncc4c5ccncc5n(C5CCCC5)c4n3)nn2)CC1` [Example 476], the values for the pIC50 in assay [1] and in assay [2] were 7.59 and 8.77, respectively.

In the case of `O[C@@H]1CCC[C@@H]1n1c2cnccc2c2cnc(Nc3ccc(N4CCNCC4)cn3)nc21` [Example 361], the results for the pIC50 in assay [1] and in assay [2] were 7.24 and 7.36, respectively.

On to `c1cc2c3cnc(Nc4ccc(N5CCC(NC6CC6)CC5)cn4)nc3n(C3CCCC3)c2cn1` [Example 465], for which the pIC50 in assay [1] was 7.92; in assay [2] it was 8.39.

Turning to `Cc1cc(Nc2ncc3c4ccncc4n(C4CCCC4)c3n2)cnc1N1CCNCC1` [Example 5, 9-cyclopentyl-N-(5-methyl-6-(1-piperazinyl)-3-pyridinyl)-9H-pyrido-[4′,3′:4,5]pyrrolo[2,3-d]pyrimidin-2-amine], the pIC50 in assay [1] is 8.38; in assay [2], 9.04.

On to `O=S1(=O)CCN(c2ccc(Nc3ncc4c5ccncc5n(C5CCCC5)c4n3)nn2)CC1` [Example 94], for which the pIC50 in assay [1] is 8.04; in assay [2] it was 8.31.

For the compound `c1cc2c3cnc(Nc4ccc(NCC5CCNC5)nn4)nc3n(C3CCCC3)c2cn1` (stereo not drawn) [Example 98], the pIC50 was 7.58 in assay [1] and 8.60 in assay [2].

Take `CN(C)[C@@H]1CCN(c2ccc(Nc3ncc4c5ccncc5n(C5CCCC5)c4n3)nc2)C1` [Example 289]: the pIC50 was 7.40 in assay [1] and 8.14 in assay [2].

Turning to `COCCn1c2cnccc2c2cnc(Nc3ccc(N4CCC(N(C)C)CC4)cn3)nc21` [Example 314], the pIC50 was 5.82 in assay [1] and 6.42 in assay [2].

On to `CC1CN(c2ccc(Nc3ncc4c5ccccc5n(C5CCCC5)c4n3)nn2)CC(C)N1` (stereo not drawn) [Example 306], for which the results for the pIC50 in assay [1] and in assay [2] were 7.41 and 7.89, respectively.

For `c1ccc2c(c1)c1cnc(Nc3ccc(N4CCNCC4)cn3)nc1n2C1CCCCC1` [Example 22, (9-Cyclohexyl-9H-pyrimido[4,5-b]indol-2-yl)-(5-piperazin-1-yl-pyridin-2-yl)-amine], the pIC50 in assay [1] is 8.60; in assay [2] it was 8.89.

Turning to `O[C@H]1CCN(c2ccc(Nc3ncc4c5ccccc5n(C5CCCC5)c4n3)nc2)C1` [Example 305], the pIC50 was 6.95 in assay [1] and 6.83 in assay [2].

Regarding `O=S(=O)(c1ccc(Nc2ncc3c4ccncc4n(C4CCCC4)c3n2)nc1)N1CCNCC1` [Example 227, 9-Cyclopentyl-N-(5-(1-piperazinylsulfonyl)-2-pyridinyl)-9H-pyrido[4′,3′:4,5]pyrrolo[2,3-d]pyrimidin-2-amine], the pIC50 in assay [1] is 8.51; in assay [2] it was 8.52.

As for `N#Cc1nccc2c3cnc(Nc4ccc(N5CCNCC5)cn4)nc3n(C3CCCC3)c12` [Example 188, 9-Cyclopentyl-2-((5-(1-piperazinyl)-2-pyridinyl)amino)-9H-pyrido[4′,3′:4,5]pyrrolo[2,3-d]pyrimidine-8-carbonitrile], the pIC50 in assay [1] is 7.87; in assay [2], 7.57.

As to `CCC(CC)n1c2cnccc2c2cnc(Nc3ccc(N4CCNCC4)cn3)nc21` [Example 161, 9-(1-Ethylpropyl)-N-(5-(1-piperazinyl)-2-pyridinyl)-9H-pyrido[4′,3′:4,5]pyrrolo[2,3-d]pyrimidin-2-amine], the pIC50 was 7.80 in assay [1] and 8.44 in assay [2].

On to `CN(C)C1CCN(c2ccc(Nc3ncc4c5ccnc(F)c5n(CC5CC5)c4n3)nn2)CC1` [Example 169], for which the values for the negative-log IC50 (pIC50) in assay [1] and in assay [2] were 6.82 and 6.85, respectively.

For the compound `c1ccc2c(c1)c1cnc(Nc3ccc(N4CCNCC4)cn3)nc1n2C1CCCC1` [Example 37, (9-Cyclopentyl-9H-pyrimido[4,5-b]indol-2-yl)-(5-piperazin-1-yl-pyridin-2-yl)-amine], the pIC50 is 8.92 in assay [1] and 8.37 in assay [2].

For `CC[C@@H](C)n1c2cnccc2c2cnc(Nc3ccc(N4CCNCC4)nn3)nc21` [Example 323], the pIC50 in assay [1] is 7.64; in assay [2], 8.02.

For `OC1CCN(c2ccc(Nc3ncc4c5ccncc5n(C5CCCC5)c4n3)nn2)CC1` [Example 102], the pIC50 was 7.95 in assay [1] and 8.51 in assay [2].

For the compound `CC[C@@H](C)n1c2cnccc2c2cnc(Nc3ccc(N4CCN[C@@H](C)C4)nn3)nc21` [Example 317], the negative-log IC50 (pIC50) is 7.68 in assay [1] and 7.92 in assay [2].

Consider `CN1CCN(c2ccc(Nc3ncc4c5ccncc5n(C5CCCC5)c4n3)nc2)CC1` [Example 2, 9-Cyclopentyl-N-(5-(1-(N^4-methylpiperazinyl))-2-pyridinyl)-9H-pyrido-[4′,3′:4,5]pyrrolo[2,3-d]pyrimidin-2-amine], for which the pIC50 was 8.00 in assay [1] and 7.89 in assay [2].

Consider `OCCNc1ccc(Nc2ncc3c4ccncc4n(C4CCCC4)c3n2)nn1` [Example 292], for which the pIC50 was 7.79 in assay [1] and 8.31 in assay [2].

For `C[C@H](CO)NC1CCN(c2ccc(Nc3ncc4c5ccncc5n(C5CCCC5)c4n3)nn2)CC1` [Example 444], the pIC50 is 7.96 in assay [1] and 8.72 in assay [2].

For the compound `O=S1(=O)CCC(Nc2ccc(Nc3ncc4c5ccncc5n(C5CCCC5)c4n3)nc2)C1` (stereo not drawn) [Example 65], the pIC50 in assay [1] is 7.62; in assay [2], 8.02.

For `NC1CCN(c2ccc(Nc3ncc4c5ccncc5n(C5CCCC5)c4n3)nn2)CC1` [Example 114], the pIC50 in assay [1] is 8.00; in assay [2], 8.80.

Consider `c1cc2c3cnc(Nc4ccc(N5CCCNCC5)nn4)nc3n(C3CCCC3)c2cn1` [Example 117], for which the pIC50 in assay [1] is 8.17; in assay [2], 8.26.

With `COCCn1c2cnccc2c2cnc(Nc3ccc(N4CCNCC4)nn3)nc21` [Example 313], the figures for the pIC50 in assay [1] and in assay [2] were 6.40 and 6.47, respectively.

In the case of `Fc1nccc2c3cnc(Nc4ccc(N5CCNCC5)cn4)nc3n(C3CCCC3)c12` [Example 57, 9-Cyclopentyl-8-fluoro-N-(5-(1-piperazinyl)-2-pyridinyl)-9H-pyrido[4′,3′:4,5]pyrrolo[2,3-d]pyrimidin-2-amine], the results for the pIC50 in assay [1] and in assay [2] were 7.77 and 8.70, respectively.

Turning to `O=C(O)CNC1CCN(c2ccc(Nc3ncc4c5ccncc5n(C5CCCC5)c4n3)nn2)CC1` [Example 478], the pIC50 is 8.24 in assay [1] and 8.70 in assay [2].

Consider `Fc1nccc2c3cnc(Nc4ccc(CN5CCNCC5)cn4)nc3n(C3CCCC3)c12` [Example 213, 9-cyclopentyl-8-fluoro-N-(5-(1-piperazinylmethyl)-2-pyridinyl)-9H-pyrido[4′,3′:4,5]pyrrolo[2,3-d]pyrimidin-2-amine], for which the pIC50 in assay [1] is 7.28; in assay [2], 6.69.

For `CN(C)C1CCN(c2ccc(Nc3ncc4c5ccncc5n(C5CCC5)c4n3)nc2)CC1` [Example 341], the pIC50 in assay [1] was 7.80; in assay [2], 7.68.

On to `Cn1c(=O)ccc2c3cnc(Nc4ccc(N5CC[C@@H](O)C5)cn4)nc3n(C3CCCC3)c21` [Example 185, 9-Cyclopentyl-2-((5-((3R)-3-hydroxy-1-pyrrolidinyl)-2-pyridinyl)amino)-8-methyl-8,9-dihydro-7H-pyrido[3′,2′:4,5]pyrrolo[2,3-d]pyrimidin-7-one], for which the pIC50 in assay [1] was 6.83; in assay [2], 6.84.

As to `c1cc2c3cnc(Nc4ccc(N5CCC(N6CCCC6)CC5)nn4)nc3n(C3CCCC3)c2cn1` [Example 437], the negative-log IC50 (pIC50) is 7.52 in assay [1] and 7.64 in assay [2].

`Cc1cc(N2CCNCC2)cnc1Nc1ncc2c3ccncc3n(C3CCCC3)c2n1` [Example 51, 9-cyclopentyl-N-(3-methyl-5-(1-piperazinyl)-2-pyridinyl)-9H-pyrido[4′,3′:4,5]pyrrolo[2,3-d]pyrimidin-2-amine]: the pIC50 in assay [1] is 6.39; in assay [2], 6.90.

Consider `CN(C)CCN(C)C1CCN(c2ccc(Nc3ncc4c5ccncc5n(C5CCCC5)c4n3)nn2)CC1` [Example 479], for which the pIC50 in assay [1] is 7.77; in assay [2] it was 8.10.

As to `CCC(C)(C)n1c2cnccc2c2cnc(Nc3ccc(N4CCC(N(C)C)CC4)nn3)nc21` [Example 156, N-(6-(4-(dimethylamino)-1-piperidinyl)-3-pyridazinyl)-9-(1,1-dimethylpropyl)-9H-pyrido[4′,3′:4,5]pyrrolo[2,3-d]pyrimidin-2-amine], the negative-log IC50 (pIC50) in assay [1] is 7.85; in assay [2], 8.15.

`OCC1CCN(c2ccc(Nc3ncc4c5ccnc(F)c5n(C5CCCC5)c4n3)nc2)CC1` [Example 187, (1-(6-((9-Cyclopentyl-8-fluoro-9H-pyrido[4′,3′:4,5]pyrrolo[2,3-d]pyrimidin-2-yl)amino)-3-pyridinyl)-4-piperidinyl)methanol]: the pIC50 in assay [1] was 8.55; in assay [2], 8.54.
